Experimental findings from patent publication US10953011B2, “Methods of treating virally associated cancers with histone deacetylase inhibitors” (priority 2019, dated 2021) are described below.

As usually defined, the inhibition is how much of the control response was suppressed. What is called pIC50 is the IC50 on a negative log10 scale, so that one unit is a factor of ten. Low values mean a large IC50, high ones a small IC50.

Common to all, as to assay: in vitro HDAC inhibition assay (fluorescence)
Type in all cases: biochemical

The target of one assay is HDAC4 (Homo sapiens, UniProt P56524). To be noted: for inhibition at 100 µM: read-out: Percentage Inhibition HDAC4. Here is the method: (§1) Briefly, all of the compounds are dissolved in DMSO. A series of dilutions of the compounds were prepared with 10% DMSO in HDAC assay buffer and 5 μl of the dilution was added to a 50 μl reaction so that the final concentration of DMSO is 1% in all of reactions. The compounds were pre-incubated in duplicate at RT for 1 hour in a mixture containing HDAC assay buffer, 5 μg BSA, HDAC enzyme (see Table 7) and a the particular HDACi. After 1 hour, the enzymatic reactions were initiated by the addition of HDAC substrate (BPS Bioscience) to a final concentration of 10 μM or 2 μM. The enzymatic reaction proceeded for 30 minutes at 37° C.
(§2) HDAC activity assays were performed in duplicates at each concentration. The fluorescent intensity data were analyzed using the computer software, Graphpad Prism. In the absence of the compound, the fluorescent intensity (Ft) in each data set was defined as 100% activity. In the absence of HDAC, the fluorescent intensity (Fb) in each data set was defined as 0% activity. The percent activity in the presence of each compound was calculated according to the following equation: % activity=(F−Fb)/(Ft−Fb), where F=the fluorescent intensity in the presence of the compound.
(§3) The values of % activity versus a series of compound concentrations were then plotted using non-linear regression analysis of Sigmoidal dose-response curve generated with the equation Y=B+(T−B)/1+10^((Log EC50-X)×Hill Slope), where Y=percent activity, B=minimum percent activity, T=maximum percent activity, X=logarithm of compound and Hill Slope=slope factor or Hill coefficient. The IC50 value was determined by the concentration causing a half-maximal percent activity.

A further assay concerns the target HDAC9 (Homo sapiens, UniProt Q9UKV0). To be noted: for inhibition at 100 µM: read-out: Percentage Inhibition HDAC9. The procedure: as §1, §2, §3
The target of the next assay is T1, HDAC7 (Homo sapiens, UniProt Q8WUI4).
T1 sequence (Q8WUI4 1-952): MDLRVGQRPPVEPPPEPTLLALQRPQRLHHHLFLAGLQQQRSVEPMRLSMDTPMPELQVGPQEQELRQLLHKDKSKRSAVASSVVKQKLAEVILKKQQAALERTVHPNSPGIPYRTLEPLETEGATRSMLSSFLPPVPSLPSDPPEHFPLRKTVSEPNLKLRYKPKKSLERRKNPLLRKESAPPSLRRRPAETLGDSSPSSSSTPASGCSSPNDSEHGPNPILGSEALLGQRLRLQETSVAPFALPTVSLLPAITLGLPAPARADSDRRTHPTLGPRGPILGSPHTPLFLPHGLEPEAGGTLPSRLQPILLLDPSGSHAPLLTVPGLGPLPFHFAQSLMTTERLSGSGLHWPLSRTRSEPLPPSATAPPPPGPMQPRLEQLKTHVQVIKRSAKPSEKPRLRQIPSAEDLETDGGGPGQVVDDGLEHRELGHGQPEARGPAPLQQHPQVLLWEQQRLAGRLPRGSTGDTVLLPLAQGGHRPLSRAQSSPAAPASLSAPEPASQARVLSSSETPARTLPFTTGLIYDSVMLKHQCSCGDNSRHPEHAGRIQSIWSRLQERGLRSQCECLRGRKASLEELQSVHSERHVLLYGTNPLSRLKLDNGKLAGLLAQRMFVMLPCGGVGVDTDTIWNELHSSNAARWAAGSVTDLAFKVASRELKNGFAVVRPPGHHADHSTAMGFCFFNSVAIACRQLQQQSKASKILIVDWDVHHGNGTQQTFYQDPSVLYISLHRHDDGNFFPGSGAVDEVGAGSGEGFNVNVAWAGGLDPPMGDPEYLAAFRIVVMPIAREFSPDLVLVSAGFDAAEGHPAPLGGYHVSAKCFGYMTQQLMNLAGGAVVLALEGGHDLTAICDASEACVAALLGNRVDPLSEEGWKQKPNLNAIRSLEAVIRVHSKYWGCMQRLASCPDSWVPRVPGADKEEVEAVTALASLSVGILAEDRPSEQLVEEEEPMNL
To be noted: for inhibition at 100 µM: read-out: Percentage Inhibition HDAC7. The procedure:
as §1, §2, §3

The target in the next assay is HDAC1 (Homo sapiens, UniProt Q13547). The procedure:
as §1, §2, §3

A further assay concerns the target HDAC5 (Homo sapiens, UniProt Q9UQL6). Here is the method: as §1, §2, §3
A further assay has as its target T2, HDAC11 (Homo sapiens, UniProt Q96DB2).
T2 sequence (Q96DB2 1-347): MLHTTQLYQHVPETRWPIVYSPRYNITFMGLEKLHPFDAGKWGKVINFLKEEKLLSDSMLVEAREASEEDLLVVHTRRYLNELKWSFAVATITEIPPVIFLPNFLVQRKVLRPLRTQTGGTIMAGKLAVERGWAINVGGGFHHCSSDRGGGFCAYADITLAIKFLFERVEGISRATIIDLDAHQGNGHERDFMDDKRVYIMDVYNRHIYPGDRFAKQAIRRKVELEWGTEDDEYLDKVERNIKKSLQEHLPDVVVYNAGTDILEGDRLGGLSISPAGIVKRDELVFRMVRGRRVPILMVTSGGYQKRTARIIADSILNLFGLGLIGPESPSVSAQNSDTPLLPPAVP
Here is the method: as §1, §2, §3

pIC50: −log10 of the molar value.

HDAC4, sequence (P56524 whole entry): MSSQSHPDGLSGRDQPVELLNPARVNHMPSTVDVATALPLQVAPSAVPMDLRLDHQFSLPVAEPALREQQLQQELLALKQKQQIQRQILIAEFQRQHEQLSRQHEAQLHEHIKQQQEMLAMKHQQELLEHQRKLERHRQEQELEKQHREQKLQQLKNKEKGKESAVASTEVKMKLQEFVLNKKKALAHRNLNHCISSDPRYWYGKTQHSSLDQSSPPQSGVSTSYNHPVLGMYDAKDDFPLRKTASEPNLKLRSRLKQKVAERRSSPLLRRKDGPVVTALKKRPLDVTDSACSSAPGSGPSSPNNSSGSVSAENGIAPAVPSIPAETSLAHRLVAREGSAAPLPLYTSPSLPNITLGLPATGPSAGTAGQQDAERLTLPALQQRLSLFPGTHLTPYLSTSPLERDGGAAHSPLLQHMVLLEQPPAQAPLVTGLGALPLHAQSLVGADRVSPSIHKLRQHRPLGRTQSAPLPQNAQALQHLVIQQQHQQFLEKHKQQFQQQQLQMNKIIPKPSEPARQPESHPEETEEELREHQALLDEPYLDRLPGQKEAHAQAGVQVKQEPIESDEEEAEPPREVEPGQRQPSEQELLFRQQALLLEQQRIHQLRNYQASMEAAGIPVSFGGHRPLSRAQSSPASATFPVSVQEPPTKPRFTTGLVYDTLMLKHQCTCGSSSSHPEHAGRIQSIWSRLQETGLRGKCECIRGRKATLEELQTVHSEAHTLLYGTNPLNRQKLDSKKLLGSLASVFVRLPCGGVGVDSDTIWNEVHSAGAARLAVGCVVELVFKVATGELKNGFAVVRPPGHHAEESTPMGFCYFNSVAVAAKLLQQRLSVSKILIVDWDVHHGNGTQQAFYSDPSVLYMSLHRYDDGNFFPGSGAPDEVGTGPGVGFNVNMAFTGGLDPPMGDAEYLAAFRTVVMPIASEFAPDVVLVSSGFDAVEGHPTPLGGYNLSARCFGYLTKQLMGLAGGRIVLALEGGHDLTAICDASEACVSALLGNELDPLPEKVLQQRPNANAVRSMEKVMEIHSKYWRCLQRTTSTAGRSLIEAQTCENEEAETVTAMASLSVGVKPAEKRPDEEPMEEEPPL
HDAC9, sequence (Q9UKV0 whole entry): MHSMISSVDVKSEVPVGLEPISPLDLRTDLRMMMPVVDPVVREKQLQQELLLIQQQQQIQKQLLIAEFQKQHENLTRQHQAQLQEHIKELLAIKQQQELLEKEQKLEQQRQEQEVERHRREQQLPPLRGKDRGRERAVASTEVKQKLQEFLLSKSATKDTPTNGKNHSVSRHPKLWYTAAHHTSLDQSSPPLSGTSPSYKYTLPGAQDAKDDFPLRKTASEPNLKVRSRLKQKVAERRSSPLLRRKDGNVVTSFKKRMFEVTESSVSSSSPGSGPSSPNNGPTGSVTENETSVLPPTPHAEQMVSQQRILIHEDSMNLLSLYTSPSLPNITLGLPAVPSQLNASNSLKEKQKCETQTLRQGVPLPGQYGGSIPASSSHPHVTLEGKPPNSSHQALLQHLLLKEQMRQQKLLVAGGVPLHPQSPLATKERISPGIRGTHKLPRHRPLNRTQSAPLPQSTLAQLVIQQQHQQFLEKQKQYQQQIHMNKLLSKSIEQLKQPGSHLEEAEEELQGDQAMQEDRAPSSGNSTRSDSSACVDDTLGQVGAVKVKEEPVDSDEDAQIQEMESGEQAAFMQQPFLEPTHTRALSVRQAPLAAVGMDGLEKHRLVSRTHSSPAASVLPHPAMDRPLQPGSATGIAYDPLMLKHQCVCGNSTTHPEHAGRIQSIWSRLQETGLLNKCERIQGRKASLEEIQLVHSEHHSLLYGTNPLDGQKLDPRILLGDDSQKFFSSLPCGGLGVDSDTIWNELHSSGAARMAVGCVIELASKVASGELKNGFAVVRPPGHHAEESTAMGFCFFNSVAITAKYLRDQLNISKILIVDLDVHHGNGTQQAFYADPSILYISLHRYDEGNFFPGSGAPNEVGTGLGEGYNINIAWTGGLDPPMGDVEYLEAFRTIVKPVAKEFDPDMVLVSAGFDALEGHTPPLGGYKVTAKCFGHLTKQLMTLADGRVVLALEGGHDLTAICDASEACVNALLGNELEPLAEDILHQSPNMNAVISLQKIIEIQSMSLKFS
HDAC5, sequence (Q9UQL6 whole entry): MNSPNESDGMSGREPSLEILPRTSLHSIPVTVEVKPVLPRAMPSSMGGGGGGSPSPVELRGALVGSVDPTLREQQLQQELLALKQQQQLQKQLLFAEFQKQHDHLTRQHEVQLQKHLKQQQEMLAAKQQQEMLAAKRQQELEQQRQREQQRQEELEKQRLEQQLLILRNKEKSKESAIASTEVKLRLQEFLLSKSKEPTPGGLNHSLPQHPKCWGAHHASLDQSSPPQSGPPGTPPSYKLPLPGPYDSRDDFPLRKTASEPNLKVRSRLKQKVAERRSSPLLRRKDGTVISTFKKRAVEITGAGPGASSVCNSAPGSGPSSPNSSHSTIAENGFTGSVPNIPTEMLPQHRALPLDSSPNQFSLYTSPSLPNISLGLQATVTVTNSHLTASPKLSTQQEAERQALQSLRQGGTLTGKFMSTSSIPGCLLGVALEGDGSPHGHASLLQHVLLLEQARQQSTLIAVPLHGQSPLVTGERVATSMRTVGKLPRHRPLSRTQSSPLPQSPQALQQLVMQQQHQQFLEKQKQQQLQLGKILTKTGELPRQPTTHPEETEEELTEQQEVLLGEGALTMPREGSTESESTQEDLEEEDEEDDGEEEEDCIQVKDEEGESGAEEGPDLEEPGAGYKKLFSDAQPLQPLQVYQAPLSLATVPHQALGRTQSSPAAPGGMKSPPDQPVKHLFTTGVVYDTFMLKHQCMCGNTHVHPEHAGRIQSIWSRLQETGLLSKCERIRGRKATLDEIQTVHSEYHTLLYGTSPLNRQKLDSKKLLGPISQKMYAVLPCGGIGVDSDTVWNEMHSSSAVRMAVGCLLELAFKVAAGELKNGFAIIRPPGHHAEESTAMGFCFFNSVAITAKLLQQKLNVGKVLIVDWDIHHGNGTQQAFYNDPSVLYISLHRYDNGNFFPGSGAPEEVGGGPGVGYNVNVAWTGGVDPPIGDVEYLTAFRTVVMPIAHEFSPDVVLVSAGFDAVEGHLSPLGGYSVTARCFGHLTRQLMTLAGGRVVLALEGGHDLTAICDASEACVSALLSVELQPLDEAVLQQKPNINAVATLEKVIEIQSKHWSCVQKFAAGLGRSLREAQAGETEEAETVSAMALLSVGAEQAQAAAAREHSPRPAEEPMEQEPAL
HDAC1, sequence (Q13547 whole entry): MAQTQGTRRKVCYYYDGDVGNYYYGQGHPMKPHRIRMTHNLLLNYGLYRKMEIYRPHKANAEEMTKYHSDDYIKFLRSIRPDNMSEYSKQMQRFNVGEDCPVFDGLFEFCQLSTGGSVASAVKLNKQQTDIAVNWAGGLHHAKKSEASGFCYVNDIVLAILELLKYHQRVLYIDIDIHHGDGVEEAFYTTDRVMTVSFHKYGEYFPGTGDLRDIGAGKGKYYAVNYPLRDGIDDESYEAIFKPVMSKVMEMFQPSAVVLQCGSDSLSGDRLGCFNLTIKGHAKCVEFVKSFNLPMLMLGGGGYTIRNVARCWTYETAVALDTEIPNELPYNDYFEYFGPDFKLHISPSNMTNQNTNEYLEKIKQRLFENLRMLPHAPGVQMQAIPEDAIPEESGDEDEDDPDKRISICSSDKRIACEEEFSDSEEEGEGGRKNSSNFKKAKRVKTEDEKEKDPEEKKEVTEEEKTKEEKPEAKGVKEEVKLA

In the case of `O=C(CCCCCCC(=O)Nc1ccccc1)NO` [SAHA, suberanilohydroxamic acid], the inhibition at 100 µM is 34% at HDAC4, 37% on HDAC9 and 27% on HDAC7.

As for `C/C=C1\NC(=O)[C@H]2CSSCC/C=C/[C@H](CC(=O)N[C@H](C(C)C)C(=O)N2)OC(=O)[C@H](C(C)C)NC1=O` [FK228, romidepsin], the pIC50 against HDAC1 is 5.92; against HDAC4 it was less than 4.00; on HDAC5 it was less than 4.00; against HDAC9 it was less than 4.00; at HDAC11, less than 4.00; on HDAC7, less than 4.00. For the same compound, the inhibition at 100 µM was less than 17% on HDAC4; 17% at HDAC5 (read-out: Percentage Inhibition HDAC5); less than 17% at HDAC9; less than 17% on HDAC11 (read-out: Percentage Inhibition HDAC11); less than 17% on HDAC7.

In turn, `Nc1ccccc1NC(=O)c1ccc(CNC(=O)OCc2cccnc2)cc1` [MS-275, entinostat] showed a pIC50 against HDAC11 of less than 4.00.
